For test [1], the system named is hFOB cells. Kind of test: Proliferation of hFOB cells expressing FGFR2 IIIc. It counts as cell-based, human. The note with it: RPT835 1 micron, FGF-1 100 ng/ml. The method, then:
(§1) The research assessed the influence of inhibitor RPT835 determined by formula II of this invention, intervention with interaction of FGFR2 represented by two most frequent isoforms IIIb and IIIc with FRS2. For this, human cell line of embryonal osteoblasts (hFOB) expressing only FGFR2 […], and human cell line of breast cancer SUM-52 expressing FGFR2 IIIb (all main versions of isoform—C1, C2, C3) were chosen.
(§2) Cells were divided into the groups: • 1a) hFOB • 1b) hFOB, stimulating FGF-1 (100 ng/ml) • 1c) hFOB, cultivation with RPT835 (1 micron) and stimulation of FGF-1 (100 ng/ml) • 2a) SUM-52 • 2b) SUM-52, stimulation of FGF-1 (100 ng/ml) • 2c) SUM-52, cultivation with RPT835 (1 micron) and stimulation of FGF-1 (100 ng/ml)

In test [2] the test system is SKOV3 ovarian cancer cells. Kind of test: Crystal Violet proliferation assay, SKOV3. It counts as cell-based. The note with it: SKOV3, low FGFR2 expression; bFGF 100 ng/ml, 7 days. An excerpt:
This research used additional cell lines: SKOV3 (ovarian cancer, ATCC # HTB-77), HS578T (breast cancer, ATCC # HTB-126), T47D (breast cancer, ATCC #HTB-1336), modified line of non-small cells lung cancer A549, line of metastatic melanoma of skin Mel Kor (RF Patent No. 2287578), and additional study of antiangiogenic activity—cell line SVEC-4-10 (endothelial cells, ATCC #CRL-2181).
The cells were cultivated in environment RPMI-1640 (PANECO) (SKOV3, HS578T, T47D, Mel-Kor) or DMEM (PANECO) (SVEC-4-10) containing 10% of embryonal serum cattle (FCS, HyClone), 2 mM glutamine (PANECO), antibiotics (100 IU/mL penicillin and […] streptomycin (all PANECO)) at 37° C. and 5% CO2. Cells at 70-80% monolayer were used for the experiments.
The cells were planted in low density (30 t of cells/ml) in triplets on a 96-cavity plate in an environment containing 0.1% of FCS serum. […] Growth of cells was determined by the modified “Crystal Violet mitogenic method” for 7 days after the experiment start. […] The dye was dissolved in ethanol and measured on a spectrophotometer at 540-560 nm. The curve of cell proliferative activity inhibition was built by the dependence of the percent of the cell quantity (Y axis) on concentration of inhibitor RPT835 in the cavity of the plate (X axis). […]

The subject of test [3] is triple negative breast cancer HS578T. Kind of test: Tumor growth of HS578T xenograft in nude mice. Format: in vivo. Conditions: for Slowdown of tumor growth: 30 mg/kg daily; for average size of tumor: 30 mg/kg daily through a stomach tube. The method, then: Females of immunodeficient mice (nude) at the age of 8 weeks were administered 2×10^6 tumor cells of human cell lines with various expression of FGFR2: • cell line of triple-negative breast cancer SUM52PE strongly expressing FGFR2 (purchased from Asterand, Inc. (Detroit, Mich.) • cell line of triple negative breast cancer HS578T weakly expressing FGFR2 (purchased from ATCC (CRL-125) • cell line of non-small cell lung cancer NCI-H226 not expressing FGFR2 (purchased from ATCC (CRL-5826)
After the tumor growth got established (1 mm^3), the mice were divided into control and treatment groups in accordance with the tumor type.
Control group 2 (N=10): HS578T, administration of water through a stomach tube, daily.
Treatment group 2 (N=10): HS578T, administration of inhibitor RPT835 through a stomach tube in a dose of 30 mg/kg, daily.
Size of tumor and weight of animals were measured every 3 day. The mice underwent euthanasia when the tumor reached the size of 2,000 mm^3 or on the 60 day of the experiment.

For test [4], the system named is SUM-52 cells. Kind of test: Proliferation of SUM-52 cells expressing FGFR2 IIIb. Format: cell-based, human. Conditions: SUM-52 (FGFR2 IIIb), RPT835 1 micron, FGF-1 100 ng/ml. The method, then:
as §1, §2

Regarding `Cc1cc([N+](=O)[O-])c(NS(=O)(=O)c2cccc(C(=O)O)c2)cc1-c1cccnc1` [RPT835, 3-(N-(4-methyl-2-nitro-5-(pyridin-3-yl)phenyl)sulfamoyl)benzoic acid], the proliferation of cells result in test [1] and in test [4] was “reliably suppressed proliferation” throughout. The “inhibition of proliferative activity” value in test [2] is reported as “moderate effect”. Further, the “Slowdown of tumor growth” value was determined as 33.2% in test [3] (31st day) and 30.6% in test [3] (40th day). The “average size of tumor” value in test [3] (31st day) was 703±89.1 mm3; in test [3] (40th day, P=0.01), 1,104±162.2 mm3.

Values taken from patent US9957236B2, “Selective inhibitors interfering with fibroblast growth factor receptor and FRS2 interaction for the prevention and treatment of cancer and other diseases” (LIMITED LIABILITY COMPANY “RUSSIAN PHARMACEUTICAL …, priority 2014, dated 2018).
